Data taken from ChEMBL document CHEMBL1148381, “Application of CoMFA and CoMSIA 3D-QSAR and docking studies in optimization of mercaptobenzenesulfonamides as HIV-1 integrase inhibitors” (J Med Chem, 2004).

Legend:
[1] = molecular target: T1, Human immunodeficiency virus type 1 integrase (Human immunodeficiency virus 1, UniProt Q7ZJM1); test: Inhibitory activity against DNA strand transfer by HIV integrase
[2] = molecular target: T1, Human immunodeficiency virus type 1 integrase; test: Inhibitory activity against 3' processing by HIV integrase

T1 sequence (Q7ZJM1 whole entry): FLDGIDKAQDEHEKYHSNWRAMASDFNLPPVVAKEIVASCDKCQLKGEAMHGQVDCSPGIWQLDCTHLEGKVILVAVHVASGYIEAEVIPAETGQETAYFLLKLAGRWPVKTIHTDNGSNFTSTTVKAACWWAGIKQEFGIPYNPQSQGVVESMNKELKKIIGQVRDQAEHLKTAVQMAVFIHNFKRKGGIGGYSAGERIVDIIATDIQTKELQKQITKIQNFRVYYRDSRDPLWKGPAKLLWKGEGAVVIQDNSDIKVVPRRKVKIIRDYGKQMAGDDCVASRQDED

For `CCC(C)n1cnnc1NS(=O)(=O)c1cc(C(=O)Nc2ccc(C)cc2)c(Cl)cc1S` (centres undefined), the IC50 [1] was 112 µM and the IC50 [2] was 200 µM.
Molecule `Cc1ccc(Nc2n[nH]c(NS(=O)(=O)c3cc(C)c(Cl)cc3S)n2)cc1` has an IC50 [1] of 24 µM and an IC50 [2] of 22.4 µM.
Work on `Cc1cc(S(=O)(=O)Nc2nc(N)n(-c3ccccc3)n2)c(S)cc1Cl` yielded an IC50 [1] of 13.2 µM and an IC50 [2] of 10.7 µM.
Molecule `CCCCn1cnnc1NS(=O)(=O)c1cc(C(=O)Nc2ccc(Cl)cc2)c(Cl)cc1S` has an IC50 [1] of 43.7 µM and an IC50 [2] of 36.3 µM.
`CC(C)Cn1cnnc1NS(=O)(=O)c1cc(C(=O)Nc2ccc(Cl)cc2)c(Cl)cc1S` showed an IC50 [1] of 39.8 µM and an IC50 [2] of 38 µM.
Work on `Cc1cc2c(cc1Cl)SC(C1C(=O)NC(=O)NC1=O)NS2(=O)=O` (centres undefined) yielded an IC50 [1] of 60.3 µM and an IC50 [2] of 60.3 µM.
In the case of `O=C(Nc1ccccc1)c1cc(S(=O)(=O)Nc2nncn2-c2ccc(F)cc2)c(S)cc1Cl`, the IC50 [1] is reported as 50.1 µM and the IC50 [2] is reported as 45.7 µM.
With `O=S(=O)(Nc1nccs1)c1ccc(/N=N/c2cnc(O)c(O)c2)cc1` the IC50 [1] was 20.9 µM and the IC50 [2] was 22.9 µM.
`Cc1ccc(-n2cnnc2NS(=O)(=O)c2cc(C(=O)Nc3ccccc3)c(Cl)cc2S)cc1` gave an IC50 [1] of 10 µM and an IC50 [2] of 6.03 µM.
`CC1N=NC(c2ccc(S(=O)(=O)NC3SC(=S)NC3=O)cc2)S1` (centres undefined) was tested, and the IC50 [1] was 19.1 µM and the IC50 [2] was 24 µM.
With `Cc1cc(S(=O)(=O)Nc2nnc3c4c(C)csc4ncn23)c(S)cc1Cl` the IC50 [1] was 3.47 µM and the IC50 [2] was 3.63 µM.
Work on `O=S(=O)(Nc1nnc2c3ccccc3cnn12)c1ccc(Cl)cc1S` yielded an IC50 [1] of 38.9 µM and an IC50 [2] of 28.8 µM.
In the case of `Cc1cc(S(=O)(=O)Nc2nc(Nc3ccccc3)nn2C)c(S)cc1Cl`, the IC50 [1] is reported as 15.8 µM and the IC50 [2] is reported as 27.5 µM.
`O=C1NC(=S)SC1NS(=O)(=O)c1ccc(-c2ncccn2)cc1` (centres undefined) gave an IC50 [1] of 14.1 µM and an IC50 [2] of 28.8 µM.
With `Cc1cc(S(=O)(=O)NC2=NCCCN2)c(S)cc1Cl` the IC50 [1] was 145 µM and the IC50 [2] was 148 µM.
`CCCCn1cnnc1NS(=O)(=O)c1cc(C(N)=O)c(Cl)cc1SCC(=O)O` showed an IC50 [1] of 417 µM and an IC50 [2] of 417 µM.
Molecule `CCCCn1cnnc1NS(=O)(=O)c1cc(C(=O)Nc2ccc(C)cc2)c(Cl)cc1S` has an IC50 [1] of 33.9 µM and an IC50 [2] of 60.3 µM.
In the case of `Cc1cc(S(=O)(=O)Nc2nc(N)n(-c3ccccn3)n2)c(S)cc1Cl`, the IC50 [1] is reported as 22.9 µM and the IC50 [2] is reported as 14.5 µM.
In the case of `Cc1cc(S(=O)(=O)Nc2nc(N)nc3nc4ccccc4n23)c(S)cc1Cl`, the IC50 [1] is reported as 7.76 µM and the IC50 [2] is reported as 9.77 µM.
Molecule `CC1=NNC(=O)C1/N=N/c1ccc(S(=O)(=O)Nc2nccs2)cc1` (centres undefined) has an IC50 [1] of 61.7 µM and an IC50 [2] of 70.8 µM.
`CCCCn1cnnc1NS(=O)(=O)c1cc(C(=O)NCc2ccccc2)c(Cl)cc1S` was tested, and the IC50 [1] was 70.8 µM and the IC50 [2] was 89.1 µM.
`COc1cc(Nc2nnc(NS(=O)(=O)c3cc(C)c(Cl)cc3S)[nH]2)cc(OC)c1OC` was tested, and the IC50 [1] was 16.6 µM and the IC50 [2] was 15.5 µM.
Work on `O=S(=O)(Nc1nnc2c3ccccc3ccn12)c1ccc(F)cc1S` yielded an IC50 [1] of 47.9 µM and an IC50 [2] of 51.3 µM.
`COc1ccc(Nc2n[nH]c(NS(=O)(=O)c3cc(C)c(Cl)cc3S)n2)cc1` gave an IC50 [1] of 14.1 µM and an IC50 [2] of 15.5 µM.
`COc1cccc(Nc2n[nH]c(NS(=O)(=O)c3cc(C)c(Cl)cc3S)n2)c1` showed an IC50 [1] of 20.9 µM and an IC50 [2] of 6.31 µM.
`Cc1cc(S(=O)(=O)Nc2nnc3cc(C(F)(F)F)cc(C)n23)c(S)cc1Cl` was tested, and the IC50 [1] was 11 µM and the IC50 [2] was 18.6 µM.
`O=C(CC(Sc1[nH]cnc2ncnc1-2)Sc1[nH]cnc2ncnc1-2)Nc1ccc(S(=O)(=O)Nc2ccc(/N=N/c3ccccc3)cc2)cc1` was tested, and the IC50 [1] was 112 µM and the IC50 [2] was 141 µM.
In the case of `Cc1ccc(-n2cnnc2NS(=O)(=O)c2cc(C(=O)Nc3ccc(Cl)cc3)c(Cl)cc2S)cc1`, the IC50 [1] is reported as 3.98 µM and the IC50 [2] is reported as 3.98 µM.
Work on `Cc1cc(S(=O)(=O)Nc2nnc3cnc4ccccc4n23)c(S)cc1Cl` yielded an IC50 [1] of 8.32 µM and an IC50 [2] of 31.6 µM.
`Cc1cc(S(=O)(=O)Nc2nnc3c(C(F)(F)F)cc(Cl)cn23)c(S)cc1Cl` was tested, and the IC50 [1] was 24 µM and the IC50 [2] was 10.7 µM.
`Cc1cc(S(=O)(=O)Nc2nc(N)nc(N(C)C)n2)c(S)cc1Cl` showed an IC50 [1] of 41.7 µM and an IC50 [2] of 77.6 µM.
`O=S(=O)(Nc1nnc2n1-c1ccccc1CC2)c1ccc(Cl)cc1S` gave an IC50 [1] of 19.5 µM and an IC50 [2] of 21.9 µM.
For `Cc1cc(S(=O)(=O)Nc2nc(Nc3ccc(Cl)cc3)nn2C)c(S)cc1Cl`, the IC50 [1] was 17.8 µM and the IC50 [2] was 16.2 µM.
Molecule `Cc1cc2c(cc1Cl)SC(C1C(=O)NC(=S)NC1=O)NS2(=O)=O` (centres undefined) has an IC50 [1] of 50.1 µM and an IC50 [2] of 60.3 µM.
`CCCn1cnnc1NS(=O)(=O)c1cc(C(=O)Nc2ccc(C)cc2)c(Cl)cc1S` was tested, and the IC50 [1] was 39.8 µM and the IC50 [2] was 40.7 µM.
Molecule `Cc1cc(S(=O)(=O)Nc2nnc3c4ccccc4ccn23)c(S)cc1Cl` has an IC50 [1] of 10.7 µM and an IC50 [2] of 13.2 µM.
`O=C(Nc1ccc(F)cc1)c1cc(S(=O)(=O)Nc2nncn2-c2ccc(F)cc2)c(S)cc1Cl` showed an IC50 [1] of 37.2 µM and an IC50 [2] of 79.4 µM.
For `Cc1cc2nc3nc(N)nc(NS(=O)(=O)c4cc(C)c(Cl)cc4S)n3c2cc1C`, the IC50 [1] was 4.27 µM and the IC50 [2] was 5.5 µM.
With `Cc1cc(S(=O)(=O)Nc2nnc3c(Cl)cc(C(F)(F)F)cn23)c(S)cc1Cl` the IC50 [1] was 20.9 µM and the IC50 [2] was 17.8 µM.
Molecule `Cc1cc(S(=O)(=O)Nc2nnc3c4scc(C)c4ncn23)c(S)cc1Cl` has an IC50 [1] of 7.41 µM and an IC50 [2] of 9.33 µM.
With `Cc1ccc(Nc2nc(NS(=O)(=O)c3cc(C)c(Cl)cc3S)n(C)n2)cc1` the IC50 [1] was 19.1 µM and the IC50 [2] was 23.4 µM.
`Cc1cnc(NS(=O)(=O)c2ccc(/N=N/c3cc4ccccc4cc3O)cc2)s1` showed an IC50 [1] of 50.1 µM and an IC50 [2] of 38.9 µM.
`Cc1cc2c(cc1Cl)SC(C(C#N)C#N)NS2(=O)=O` (centres undefined) gave an IC50 [1] of 603 µM and an IC50 [2] of 708 µM.
`Cc1cc(S(=O)(=O)NC(=NN)NNc2cccc(C(F)(F)F)n2)c(S)cc1Cl` showed an IC50 [1] of 100 µM and an IC50 [2] of 87.1 µM.
Molecule `CCN(c1ccccc1)c1nc(N)nc(NS(=O)(=O)c2cc(C)c(Cl)cc2S)n1` has an IC50 [1] of 24.5 µM and an IC50 [2] of 17.4 µM.
In the case of `Cc1ccnc(NS(=O)(=O)c2ccc(/N=N/c3cc4ccccc4c(C(=O)O)c3O)cc2)n1`, the IC50 [1] is reported as 32.4 µM and the IC50 [2] is reported as 19.5 µM.
With `O=S(=O)(Nc1ccccn1)c1ccc(/N=N/c2cnc(O)c(O)c2)cc1` the IC50 [1] was 58.9 µM and the IC50 [2] was 60.3 µM.
Work on `CC(=O)Oc1cc(S(=O)(=O)Nc2nnc(Nc3ccc(C)cc3)[nH]2)c(S)cc1Cl` yielded an IC50 [1] of 10 µM and an IC50 [2] of 7.59 µM.
Molecule `O=C(Nc1ccc(Cl)cc1)c1cc(S(=O)(=O)Nc2nncn2-c2ccc(F)cc2)c(S)cc1Cl` has an IC50 [1] of 37.2 µM and an IC50 [2] of 37.2 µM.
`Cc1ccc(NC(=O)c2cc(S(=O)(=O)Nc3nncn3Cc3ccccc3)c(S)cc2Cl)cc1` showed an IC50 [1] of 7.94 µM and an IC50 [2] of 8.91 µM.
`COC(=O)CSc1cc(Cl)c(C)cc1S(=O)(=O)Nc1nnc(N)[nH]1` showed an IC50 [2] of 200 µM.
Work on `Cc1ccc(NC(=O)c2cc(S(=O)(=O)Nc3nncn3CC(C)C)c(S)cc2Cl)cc1` yielded an IC50 [1] of 100 µM and an IC50 [2] of 75.9 µM.
`CCOC(=O)C(C#N)C1NS(=O)(=O)c2cc(C)c(Cl)cc2S1` (centres undefined) gave an IC50 [1] of 112 µM and an IC50 [2] of 331 µM.
`Cc1cc(S(=O)(=O)Nc2nc3ccccc3nc2-c2cccc([N+](=O)[O-])c2)c(S)cc1Cl` was tested, and the IC50 [1] was 7.94 µM and the IC50 [2] was 15.1 µM.
In the case of `Cc1cc(S(=O)(=O)Nc2nnc3ccccn23)c(S)cc1Cl`, the IC50 [1] is reported as 110 µM and the IC50 [2] is reported as 123 µM.
`Cc1cc(S(=O)(=O)Nc2nnc3ccc4ccccc4n23)c(S)cc1Cl` gave an IC50 [1] of 7.41 µM and an IC50 [2] of 12.9 µM.
`Cc1cc(S(=O)(=O)NC(=NN)Nc2ccc(Cl)cc2)c(S)cc1Cl` was tested, and the IC50 [1] was 3.55 µM and the IC50 [2] was 3.55 µM.
In the case of `Cc1cc(S(=O)(=O)Nc2nc3ccccc3[nH]2)c(S)cc1Cl`, the IC50 [1] is reported as 43.7 µM and the IC50 [2] is reported as 38.9 µM.
In the case of `CC1=NN(c2ccccc2)C(=O)C1/N=N/c1ccc(S(=O)(=O)Nc2scc(C)c2C)cc1` (centres undefined), the IC50 [1] is reported as 107 µM and the IC50 [2] is reported as 129 µM.
Work on `O=C(Nc1ccccc1)c1cc(S(=O)(=O)Nc2nncn2-c2ccc(Cl)cc2)c(S)cc1Cl` yielded an IC50 [1] of 12 µM and an IC50 [2] of 6.03 µM.
`Cc1cc(S(=O)(=O)Nc2nc3ccccc3nc2-c2ccc(Br)cc2)c(S)cc1Cl` showed an IC50 [1] of 7.94 µM and an IC50 [2] of 12.3 µM.
In the case of `CC(=O)C(/N=N/c1ccc(S(=O)(=O)Nc2ccccn2)cc1)C(=O)Nc1ccccc1C` (centres undefined), the IC50 [1] is reported as 72.4 µM and the IC50 [2] is reported as 66.1 µM.
With `Cc1cc(S(=O)(=O)Nc2nc3ccccc3nc2-c2ccc(Cl)cc2)c(S)cc1Cl` the IC50 [1] was 12 µM and the IC50 [2] was 20 µM.
`Cc1cc(C(F)(F)F)cc(-n2nc(NS(=O)(=O)c3cc(C)c(Cl)cc3S)nc2N)n1` showed an IC50 [1] of 6.31 µM and an IC50 [2] of 9.33 µM.
With `NS(=O)(=O)c1ccc(/N=N/C2Sc3nc4ccccc4n3C2=O)cc1` (centres undefined) the IC50 [1] was 126 µM and the IC50 [2] was 209 µM.
With `Cc1cc(S(=O)(=O)Nc2nnc(Nc3ccccc3)[nH]2)c(S)cc1Cl` the IC50 [1] was 12.6 µM and the IC50 [2] was 16.2 µM.
With `Cc1cc2c(cc1Cl)SC(C(C#N)C(=O)c1ccccc1)NS2(=O)=O` (centres undefined) the IC50 [1] was 112 µM and the IC50 [2] was 200 µM.
Molecule `O=C(O)c1cc2ccccc2c(/N=N/c2ccc(S(=O)(=O)Nc3nccs3)cc2)c1O` has an IC50 [1] of 42.7 µM and an IC50 [2] of 21.4 µM.
Molecule `CCCn1cnnc1NS(=O)(=O)c1cc(C(=O)Nc2ccc(C)cc2)c(Cl)cc1SCC(=O)O` has an IC50 [1] of 43.7 µM and an IC50 [2] of 43.7 µM.
`Cc1cc(S(=O)(=O)Nc2n[nH]c(-c3ccc(Cl)cn3)n2)c(S)cc1Cl` was tested, and the IC50 [1] was 10.2 µM and the IC50 [2] was 8.91 µM.
